Data reported in US5157052A, “Method for inhibiting IgE production” (priority 1990, dated 1992).

Assays:
IgE = test: Serum IgE response induced by FF1-4D5 + H∂A1 anti-IgD antibodies (ELISA, Assay A / Assay F); format: in vivo, mouse (Balb/c female)
Procedure, shortened: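 Transient IgE response induced in female Balb/c mice (10–20 weeks) by a day-0 i.v. or s.c. injection of 100 μg each of anti-IgD FF1-4D5 and H.δA1. Serum IgE measured by sandwich ELISA (B1E3 capture, biotinylated R1E4 detection, avidin-biotin-HRP/ABTS), quantified against an IgE standard curve corrected for serum dilution.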

IgM = test: Serum IgM in anti-IgD stimulated mice (two site sandwich ELISA, Assay E); format: in vivo, mouse (Balb/c female); details: 20 μg days 3 and 4
Experimental: Sera from mice treated with compounds in accordance with the method of the invention are analyzed for levels of IgG1, IgG2a, IgG3, and IgM.
Measurement of mouse IgM by a two site sandwich ELISA is performed in substantial accordance with the teachings of Assay B except for the following changes. About 250 ng of rabbit anti-mouse IgM (Zymed Laboratories) is used to coat a NuncImmulon 96 well plate. The IgM standard is purchased from Southern Biotech. The standard curve is linear between 8-500 ng/ml. Serum containing IgM is diluted 1/4,000 to 1/60,000. About a 1/10,000 dilution of goat anti mouse IgM conjugated to horse radish peroxidase is used as a combined primary antibody and developing reagent. 100 μl is added to each well and the plate is incubated at about 4° C. overnight. The colorimetric substrate is prepared and used as described in Assay A.
Two groups of 4 Balb/c female mice per group are injected with both 100 μg FF1-4D5 antibody and 100 μg H∂Al antibody. On day 3 and 4 the mice are injected with PBS (Group A) or 20 μg (±) methyl 11α,16-dihydroxy-16-ethyl-9-oxoprosta-5Z,13E-dien-1-oate (Group B) at 7 a.m., 1 p.m. and 7 p.m. in substantial accordance with the teaching of Example 13. On day -1, 7, 8, 9 and 11, 50-100 μl of serum is recovered and analyzed for IgE by Assay A and for IgM by Assay E. The results are shown in Table 6.
Three groups of 5 Balb/c female mice per group are injected with both 100 μg FF1-4D5 antibody and 100 μg H∂A1 antibody on day 0. Group A is a control with no further treatment. On day 3 and 4, the mice are injected with 20 μg (±) methyl 11α,16-dihydroxy-4,4,16-trimethyl-9-oxoprosta-13E-en-1-oate (Group B) or 20 μg (±) methyl 11α,16-dihydroxy-16-methyl-9-oxoprosta-3,5Z,13E-trien-1-oate (Group C) as in Example 13. On day -1 and 8, […] of serum is recovered and analyzed for IgE, IgG1, IgG2a, IgG3 and IgM by Assays A, B, C, D and E, respectively.

## CCCCC(C)(O)C/C=C/[C@H]1[C@H](O)CC(=O)[C@@H]1C/C=C\CCCC(=O)OC (mixture of isomers) [(±) methyl 11α,16-dihydroxy-16-methyl-9-oxoprosta-5Z,13E-dien-1-oate]
IgE; 0.5 μg IP 4x daily days 3 and 4, day 7
  Serum IgE ± SD: 7813 ± 588 ng/mL
IgE; 0.5 μg IP 4x daily days 3 and 4, day 8
  Serum IgE ± SD: 5699 ± 322 ng/mL
IgE; 0.5 μg IP 4x daily days 3 and 4, day 9
  Serum IgE ± SD: 6097 ± 249 ng/mL
IgE; 0.5 μg IP 4x daily days 3 and 4, day 11
  Serum IgE ± SD: 2049 ± 1201 ng/mL
IgE; 0.5 μg IP 4x daily days 3 and 4, day -1 baseline before treatment
  Serum IgE ± SD: 839 ± 44 ng/mL
IgE; 1.0 μg IP 3x daily days 3 and 4, day 7 (control 8850)
  Serum IgE ± SD: 4974 ± 1232 ng/mL
IgE; 1.0 μg IP 3x daily days 3 and 4, day 8 (control 7557)
  Serum IgE ± SD: 4595 ± 663 ng/mL
IgE; 1.0 μg IP 3x daily days 3 and 4, day 9 (control 6458)
  Serum IgE ± SD: 4602 ± 771 ng/mL
IgE; 1.0 μg IP 3x daily days 3 and 4, day 11 (control 1466)
  Serum IgE ± SD: 1326 ± 241 ng/mL
IgE; 1.0 μg IP 3x daily days 3 and 4, day -1 baseline before treatment
  Serum IgE ± SD: 808 ± 17 ng/mL
IgE; 1.0 μg IP 4x daily days 3 and 4, day 7
  Serum IgE ± SD: 5549 ± 1044 ng/mL
IgE; 1.0 μg IP 4x daily days 3 and 4, day 8
  Serum IgE ± SD: 3051 ± 475 ng/mL
IgE; 1.0 μg IP 4x daily days 3 and 4, day 9
  Serum IgE ± SD: 4383 ± 832 ng/mL
IgE; 1.0 μg IP 4x daily days 3 and 4, day 11
  Serum IgE ± SD: 1506 ± 794 ng/mL
IgE; 1.0 μg IP 4x daily days 3 and 4, day -1 baseline before treatment
  Serum IgE ± SD: 1197 ± 272 ng/mL
IgE; 2.0 μg IP 3x daily days 3 and 4, day 7
  Serum IgE ± SD: 5598 ± 1875 ng/mL
IgE; 2.0 μg IP 3x daily days 3 and 4, day 8
  Serum IgE ± SD: 3057 ± 331 ng/mL
IgE; 2.0 μg IP 3x daily days 3 and 4, day 9
  Serum IgE ± SD: 3644 ± 1179 ng/mL
IgE; 2.0 μg IP 3x daily days 3 and 4, day 11
  Serum IgE ± SD: 1279 ± 377 ng/mL
IgE; 2.0 μg IP 3x daily days 3 and 4, day -1 baseline before treatment
  Serum IgE ± SD: 800 ± 10 ng/mL
IgE; 2.0 μg IP 4x daily days 3 and 4, day 7
  Serum IgE ± SD: 5483 ± 717 ng/mL
IgE; 2.0 μg IP 4x daily days 3 and 4, day 8
  Serum IgE ± SD: 3236 ± 599 ng/mL
IgE; 2 μg IP 4x daily days 3 and 4, day 8 (controls 14083-15890)
  Mean IgE ± SD: 5401 ± 883 ng/mL
IgE; 2.0 μg IP 4x daily days 3 and 4, day 9
  Serum IgE ± SD: 3987 ± 401 ng/mL
IgE; 2.0 μg IP 4x daily days 3 and 4, day 11
  Serum IgE ± SD: 1925 ± 410 ng/mL
IgE; 2 μg IP 4x daily days 3 and 4, day -1 baseline before treatment
  Mean IgE ± SD: 1294 ± 232 ng/mL
IgE; 2.0 μg IP 4x daily days 3 and 4, day -1 baseline before treatment
  Serum IgE ± SD: 1019 ± 206 ng/mL
IgE; 2 μg IP, day 8
  reduction in IgE production: about 62%
IgE; 5 μg IP
  IgE inhibition regardless of day of administration: regardless on what day the prostaglandin was administered IgE production (synthesis) was inhibited
  duration of IgE suppression: IgE production was still suppressed even after 11 days
  optimal day of administration for inhibition of IgE: IgE production is inhibited optimally when administered on day 3 and 4
IgE; 5 μg IP 4x daily days 3 and 4, day 8 (controls 14083-15890)
  Mean IgE ± SD: 5076 ± 378 ng/mL
IgE; 5 μg IP 4x daily days 3 and 4, day -1 baseline before treatment
  Mean IgE ± SD: 1292 ± 185 ng/mL
IgE; 5 μg IP on days 1,2, day 8 (control 19549)
  Serum IgE ± SD: 9753 ± 4566 ng/mL
IgE; 5 μg IP on days 1,2, day 9 (control 17498)
  Serum IgE ± SD: 10678 ± 8402 ng/mL
IgE; 5 μg IP on days 1,2, day 11 (control 5317)
  Serum IgE ± SD: 2355 ± 709 ng/mL
IgE; 5 μg IP on days 1,2, day -1 baseline before treatment
  Serum IgE ± SD: 1344 ± 135 ng/mL
IgE; 5 μg IP on days 2,3, day 8 (control 19549)
  Serum IgE ± SD: 6233 ± 1948 ng/mL
IgE; 5 μg IP on days 2,3, day 9 (control 17498)
  Serum IgE ± SD: 5328 ± 1811 ng/mL
IgE; 5 μg IP on days 2,3, day 11 (control 5317)
  Serum IgE ± SD: 2139 ± 396 ng/mL
IgE; 5 μg IP on days 2,3, day -1 baseline before treatment
  Serum IgE ± SD: 1293 ± 88 ng/mL
IgE; 5 μg IP on days 3,4, day 8 (control 19549)
  Serum IgE ± SD: 4683 ± 1247 ng/mL
IgE; 5 μg IP on days 3,4, day 9 (control 17498)
  Serum IgE ± SD: 4505 ± 1155 ng/mL
IgE; 5 μg IP on days 3,4, day 11 (control 5317)
  Serum IgE ± SD: 1865 ± 361 ng/mL
IgE; 5 μg IP on days 3,4, day -1 baseline before treatment
  Serum IgE ± SD: 1517 ± 166 ng/mL
IgE; 5 μg IP on days 4,5, day 8 (control 19549)
  Serum IgE ± SD: 7969 ± 1821 ng/mL
IgE; 5 μg IP on days 4,5, day 9 (control 17498)
  Serum IgE ± SD: 7145 ± 1763 ng/mL
IgE; 5 μg IP on days 4,5, day 11 (control 5317)
  Serum IgE ± SD: 2316 ± 496 ng/mL
IgE; 5 μg IP on days 4,5, day -1 baseline before treatment
  Serum IgE ± SD: 1644 ± 560 ng/mL
IgE; 10.0 μg IP 3x daily days 3 and 4, day 7
  Serum IgE ± SD: 3223 ± 1717 ng/mL
IgE; 10.0 μg IP 3x daily days 3 and 4, day 8
  Serum IgE ± SD: 1705 ± 859 ng/mL
IgE; 10.0 μg IP 3x daily days 3 and 4, day 9
  Serum IgE ± SD: 1233 ± 601 ng/mL
IgE; 10.0 μg IP 3x daily days 3 and 4, day 11
  Serum IgE ± SD: 1116 ± 276 ng/mL
IgE; 10.0 μg IP 3x daily days 3 and 4, day -1 baseline before treatment
  Serum IgE ± SD: 849 ± 77 ng/mL
IgE; 10.0 μg IP 4x daily days 3 and 4, day 7
  Serum IgE ± SD: 2092 ± 605 ng/mL
IgE; 10.0 μg IP 4x daily days 3 and 4, day 8
  Serum IgE ± SD: 1884 ± 598 ng/mL
IgE; 10 μg IP 4x daily days 3 and 4, day 8 (controls 14083-15890)
  Mean IgE ± SD: 2661 ± 504 ng/mL
IgE; 10.0 μg IP 4x daily days 3 and 4, day 9
  Serum IgE ± SD: 1991 ± 834 ng/mL
IgE; 10.0 μg IP 4x daily days 3 and 4, day 11
  Serum IgE ± SD: 1429 ± 361 ng/mL
IgE; 10 μg IP 4x daily days 3 and 4, day -1 baseline before treatment
  Mean IgE ± SD: 1382 ± 135 ng/mL
IgE; 10.0 μg IP 4x daily days 3 and 4, day -1 baseline before treatment
  Serum IgE ± SD: 1040 ± 211 ng/mL
IgE; 20 μg IP 4x daily days 3 and 4, day 8 (controls 14083-15890)
  Mean IgE ± SD: 1608 ± 272 ng/mL
IgE; 20 μg IP 4x daily days 3 and 4, day -1 baseline before treatment
  Mean IgE ± SD: 1308 ± 204 ng/mL
IgE; 20 μg days 3 and 4
  inhibition of de novo IgE synthesis in vivo: de nouo IgE synthesis is inhibited
IgE; 40 μg IP 3x daily days 3 and 4, day 7
  Serum IgE ± SD: 998 ± 146 ng/mL
IgE; 40 μg IP 3x daily days 3 and 4, day 8
  Serum IgE ± SD: 1214 ± 181 ng/mL
IgE; 40 μg IP 3x daily days 3 and 4, day 9
  Serum IgE ± SD: 1119 ± 135 ng/mL
IgE; 40 μg IP 3x daily days 3 and 4, day 11
  Serum IgE ± SD: 1110 ± 249 ng/mL
IgE; 40 μg IP 3x daily days 3 and 4, day -1 baseline before treatment
  Serum IgE ± SD: 822 ± 39 ng/mL
IgE; 40.0 μg IP 4x daily days 3 and 4, day 7
  Serum IgE ± SD: 1037 ± 237 ng/mL
IgE; 40.0 μg IP 4x daily days 3 and 4, day 8
  Serum IgE ± SD: 1152 ± 388 ng/mL
IgE; 40 μg IP 4x daily days 3 and 4, day 8 (controls 14083-15890)
  Mean IgE ± SD: 1217 ± 344 ng/mL
IgE; 40.0 μg IP 4x daily days 3 and 4, day 9
  Serum IgE ± SD: 870 ± 83 ng/mL
IgE; 40.0 μg IP 4x daily days 3 and 4, day 11
  Serum IgE ± SD: 1028 ± 302 ng/mL
IgE; 40 μg IP 4x daily days 3 and 4, day -1 baseline before treatment
  Mean IgE ± SD: 1114 ± 324 ng/mL
IgE; 40.0 μg IP 4x daily days 3 and 4, day -1 baseline before treatment
  Serum IgE ± SD: 929 ± 97 ng/mL
IgE; 2-40 μg IP days 3 and 4
  inhibition of serum IgE synthesis: reduces IgE production in a dose dependent manner
IgE; Group D, unstimulated (PBS on day 0), 40 μg (text: 20 μg) IP days 3 and 4, day 8
  Mean IgE ± SD: 1026 ± 387 ng/mL
IgE; Group D, unstimulated (PBS on day 0), 40 μg (text: 20 μg) IP days 3 and 4, day -1 baseline before treatment
  Mean IgE ± SD: 1289 ± 10 ng/mL
IgE; IP days 3 and 4
  IgE inhibition, 3 vs 4 times a day: equally effective at inhibiting IgE production in a dose dependent manner whether administered 3 times a day or 4 times a day
  dosage at which maximum inhibition is obtained: 40.0 µg
  lowest dosage at which some inhibition is obtained: 1.0 µg
IgE; Table 9, 20 μg IP days 3 and 4, day 8 (control 3539)
  IgE ± SD: 1206 ± 119 ng/mL
IgE; Table 9, 20 μg IP days 3 and 4, day -1 baseline before treatment
  IgE ± SD: 1015 ± 70 ng/mL

## CCCCC(C)(O)C/C=C/[C@H]1[C@H](O)CC(=O)[C@@H]1C/C=C\C=CCC(=O)OC (relative stereo) [(±) methyl 11α,16-dihydroxy-16-methyl-9-oxoprosta-3,5Z,13-trien-1-oate]
IgM; Example 25
  inhibition of IgM: not IgG1, IgG2a, IgG3 and IgM
IgM; Table 14, day 8 (control 4147)
  IgM ± SD: 7708 µg/mL
IgE; 20 μg days 3 and 4, Example 25
  de novo IgE synthesis: inhibit de novo IgE synthesis
IgE; Table 14, 20 μg days 3 and 4, day 8 (control 6071)
  IgE ± SD: 1176 ± 137 ng/mL
